The source of these data is patent US9265741B2, “Molecules to perfect HbA1c levels” (Neville Pharmaceutical, Inc., priority 2011, dated 2016).

Series [1] in a line: Safety test in human volunteers. Type of series: in vivo. Particulars: clinically prescribed doses. The text has this:
Methyl pyruvate performs as a lipophilic antisense-like bullet that penetrates cell membranes, mitochondrial membranes and nuclear membranes with its active and passive delivery of energy via protons, adenosine triphosphate manufacture (ATP) and methylation. This energy delivering metabolic bullet upregulates all cytosolic and nuclear capabilities. It can even negate messenger RNA (mRNA) expression. Now, because of instant protons and pyruvate delivered, there is immediately empowered glycolysis and/or CAC production of ATP and the cell functions with more efficient performance. Through this newly available energy, gene silencing can be reversed, repairs completed, apoptosis performed, and the cell is upgraded and/or divides (cell partitioning) into a new and improved cell having shed its prior oxidative cellular/genetic debris. In DM this means improved Glut4 networking, improved insulin sensitivity, increased intra and intercellular networking and increased superoxide dismutase (SOD) production. Further, due to MP, many nutrients and complicit molecules including peroxisome proliferator-activator receptor (Ppars) will now function more effectively and efficiently, i.e. as infused and increased cellular energy can now affect niacinamide (B3) and nicotinamide adenine dinucleotide (NAD) at an intracellular level that enables and protects beta cell function. […]

The subject of series [2] is pancreatic rat islet cells. Nature of the series: MP instilled into pancreatic rat islet cells; insulin manufacture. The format is cell-based. The settings on record: pancreatic rat islet cells (animal model), several studies. The text has this:
The methyl pyruvate molecule and certain of these molecular analogues are lipophilic antisense-like permeants, each of which holds onto its own membrane penetrability as well as acting collectively to produce a timed release delivery within the inner mitochondria. The combinational synergy can be different than each effect individually. […] This up regulation is key for enhanced utilization and regulation of glucose transport. MP closes potassium channels and opens calcium channels (via aquaporin generation) allowing a more favorable cellular milieu (increases cytosolic pH) that increases CAC productivity via our delivered MP (as pyruvate), as well as the now utilizable glucose. The use of MP and/or EP as energy molecules allows gene silenced and disabled near-apoptotic cells to proceed logically/genomically to a more idealized homeostatic state for the organism. The invention represents a method for genomic self-regulation of HbA1c.
MP instilled into pancreatic rat islet cells enable upregulation of insulin manufacture six-fold in several studies. The measured Jurkat current is countered and neutralized by MP's proton impedance enhancing its later provocation in increased insulin manufacture.

Series [3] relates to HbA1c. Nature of the series: Twelve patients with DM took MP for three months; HbA1c measured. The format is in vivo, human. The text has this: Twelve patients with DM, including a juvenile diabetic, took two (2) grams of MP in water two (2) times per day for three (3) months without any other lifestyle change. The average decrease of HbA1c was one percent (1%). (The group average HbA1c diminished from 7.5% to 6.5% during the course of three (3) months of treatment.)

Consider `CCOC(=O)C(C)=O` [EP, ethyl pyruvate], for which the “safety in human volunteers” value in series [1] was “safe”.
Consider `COC(=O)C(C)=O` [MP, methyl pyruvate], for which the “upregulation of insulin manufacture” value in series [2] is “six-fold”. Also, the “safety in human volunteers” value in series [1] was “safe”. Also, the “average decrease of HbA1c” value in series [3] (2 grams of MP in water 2 times per day for 3 months, no other lifestyle change) is 1%. Further, in series [3] (after 3 months of 2 grams of MP in water 2 times per day), the “group average HbA1c after treatment” value stood at 6.5%. Also, the “group average HbA1c before treatment” value in series [3] (start of treatment (baseline)) turned out to be 7.5%.
